Experimental data from patent US6645918B1, “N-([1,2,4]triazoloazinyl)thiophenesulfonamide compounds and their use as herbicides” (Dow AgroSciences LLC, priority 2000, dated 2003).

Tests used:
Format in all cases: in vivo
[1] = system: blackgrass (Alopecurus myosuroides); experiment: Preemergence herbicidal activity, blackgrass; details: soil spray, visual after 3 weeks, 0 no injury, 100 complete kill or no germination
Protocol: (§1) The soil matrix was contained in plastic pots with a surface area of 161 square centimeters. When required to ensure good germination and healthy plants, a fungicide treatment and/or other chemical or physical treatment was applied. A weighed amount, determined by the highest rate to be tested, of each test compound was placed in a 20 mL glass vial and was dissolved in 8 mL of a 97:3 v/v (volume/volume) mixture of acetone and dimethyl sulfoxide to obtain concentrated stock solutions. […] The stock solutions obtained were diluted with a 99.9:0.1 mixture of water and Tween® 155 surfactant (ethoxylated sorbitan fatty acid ester) to obtain application solutions of known concentration. The solutions containing the highest concentration to be tested were prepared by diluting 4 mL aliquots of the stock solution with 8.5 mL of the mixture and lower concentrations were prepared by dilution of appropriate smaller portions of the stock solution. A 2.5 mL aliquot of each solution of known concentration was sprayed evenly onto the soil of each seeded pot using a Cornwall 5.0 mL glass syringe fitted with a TeeJet TN-3 hollow cone nozzle to obtain thorough coverage of the soil in each pot. Control pots were sprayed in the same manner with the aqueous mixture. A highest application rate of 4.48 kg/ha is achieved when 50 mg of test compound is employed. The treated pots and control pots were placed in a greenhouse with an approximately 15 hr photoperiod which was maintained at about 23-29° C. during the day and 22-28° C. during the night. Nutrients and water were added on a regular basis and supplemental lighting was provided with overhead metal halide 1000 Watt lamps as necessary. The water was added by top-irrigation. After 3 weeks the condition of the test plants that germinated and grew as compared with that of the untreated plants that germinated and grew was determined visually and scored on a scale of 0 to 100 percent where 0 corresponds to no injury and 100 corresponds to complete kill or no germination.

[2] = system: giant foxtail (Setaria faberi); experiment: Postemergence herbicidal activity, giant foxtail; details: foliar spray, visual after 2 weeks, 0 no injury, 100 complete kill
Protocol: (§2) Seeds of the desired test plant species were planted in Grace-Sierra MetroMix® 306 planting mixture, which typically has a pH of 6.0 to 6.8 and an organic matter content of about 30 percent, in plastic pots with a surface area of 64 square centimeters. When required to ensure good germination and healthy plants, a fungicide treatment and/or other chemical or physical treatment was applied. The plants were grown for 7-21 days in a greenhouse with an approximately 15 hr photoperiod which was maintained at about 23-29° C. during the day and 22-28° C. during the night. Nutrients and water were added on a regular basis and supplemental lighting was provided with overhead metal halide 1000 Watt lamps as necessary. The plants were employed for testing when they reached the first or second true leaf stage. A weighed amount of each test compound, determined by the highest rate to be tested, was placed in a 20 mL glass vial and was dissolved in 4 mL of a 97:3 v/v (volume/volume) mixture of acetone and dimethyl sulfoxide to obtain concentrated stock solutions. […] The concentrated stock solutions obtained were diluted with an aqueous mixture containing acetone, water, iso-propyl alcohol, dimethyl sulfoxide, Atplus 411F crop oil concentrate, and Triton X-155 surfactant (methylenebisdiamyl phenoxy polyethoxy ethanol) in a 48.5:39:10:1.5:1.0:0.02 v/v ratio to obtain spray solutions of known concentration. The solutions containing the highest concentration to be tested were prepared by diluting 2 mL aliquots of the stock solution with 13 mL of the mixture and lower concentrations were prepared by dilution of appropriate smaller portions of the stock solution. Approximately 1.5 mL aliquots of each solution of known concentration were sprayed evenly onto each of the test plant pots using a DeVilbiss atomizer driven by compressed air pressure of 2 to 4 psi (140 to 280 kilopascals) to obtain thorough coverage of each plant. Control plants were sprayed in the same manner with the aqueous mixture. In this test an application rate of 1 ppm results in the application of approximately 1 g/ha. The treated plants and control plants were placed in a greenhouse as described above and watered by sub-irrigation to prevent wash-off of the test compounds. After 2 weeks the condition of the test plants as compared with that of the untreated plants was determined visually and scored on a scale of 0 to 100 percent where 0 corresponds to no injury and 100 corresponds to complete kill.

[3] = system: cocklebur (Xanthium strumarium); experiment: Postemergence herbicidal activity, cocklebur; details: foliar spray, visual after 2 weeks, 0 no injury, 100 complete kill
Protocol: as §2

[4] = system: pigweed (Amaranthus retroflexus); experiment: Preemergence herbicidal activity, pigweed; details: soil spray, visual after 3 weeks, 0 no injury, 100 complete kill or no germination
Protocol: as §1

[5] = system: Rox orange sorghum (Sorghum bicolor); experiment: Postemergence herbicidal activity, Rox orange sorghum; details: foliar spray, visual after 2 weeks, 0 no injury, 100 complete kill
Protocol: as §2

wild oats (Avena fatua) [6] = experiment: Postemergence herbicidal activity, wild oats; details: foliar spray, visual after 2 weeks, 0 no injury, 100 complete kill
Protocol: as §2

[7] = system: morningglory (Ipomoea hederacea); experiment: Postemergence herbicidal activity, morningglory; details: foliar spray, visual after 2 weeks, 0 no injury, 100 complete kill
Protocol: as §2

[8] = system: pigweed (Amaranthus retroflexus); experiment: Postemergence herbicidal activity, pigweed; details: foliar spray, visual after 2 weeks, 0 no injury, 100 complete kill
Protocol: as §2

[9] = system: wild buckwheat (Polygonum convolvulus); experiment: Postemergence herbicidal activity, wild buckwheat; details: foliar spray, visual after 2 weeks, 0 no injury, 100 complete kill
Protocol: as §2

[10] = system: wild poinsettia (Euphorbia heterophylla); experiment: Preemergence herbicidal activity, wild poinsettia; details: soil spray, visual after 3 weeks, 0 no injury, 100 complete kill or no germination
Protocol: as §1

[11] = system: velvetleaf (Abutilion theophrasti); experiment: Preemergence herbicidal activity, velvetleaf; details: soil spray, visual after 3 weeks, 0 no injury, 100 complete kill or no germination
Protocol: as §1

[12] = system: giant foxtail (Setaria faberi); experiment: Preemergence herbicidal activity, giant foxtail; details: soil spray, visual after 3 weeks, 0 no injury, 100 complete kill or no germination
Protocol: as §1

[13] = system: lambsquarters (Chenopodium album); experiment: Preemergence herbicidal activity, lambsquarters; details: soil spray, visual after 3 weeks, 0 no injury, 100 complete kill or no germination
Protocol: as §1

wild oats (Avena fatua) [14] = experiment: Preemergence herbicidal activity, wild oats; details: soil spray, visual after 3 weeks, 0 no injury, 100 complete kill or no germination
Protocol: as §1

[15] = system: lambsquarters (Chenopodium album); experiment: Postemergence herbicidal activity, lambsquarters; details: foliar spray, visual after 2 weeks, 0 no injury, 100 complete kill
Protocol: as §2

[16] = system: morningglory (Ipomoea hederacea); experiment: Preemergence herbicidal activity, morningglory; details: soil spray, visual after 3 weeks, 0 no injury, 100 complete kill or no germination
Protocol: as §1

[17] = system: barnyardgrass (Echinochloa crus-galli); experiment: Preemergence herbicidal activity, barnyardgrass; details: soil spray, visual after 3 weeks, 0 no injury, 100 complete kill or no germination
Protocol: as §1

[18] = system: velvetleaf (Abutilion theophrasti); experiment: Postemergence herbicidal activity, velvetleaf; details: foliar spray, visual after 2 weeks, 0 no injury, 100 complete kill
Protocol: as §2

viola (Viola tricolor) = experiment: Postemergence herbicidal activity, viola; details: foliar spray, visual after 2 weeks, 0 no injury, 100 complete kill
Protocol: as §2

[19] = system: crabgrass (Digitaria sanguinalis); experiment: Preemergence herbicidal activity, crabgrass; details: soil spray, visual after 3 weeks, 0 no injury, 100 complete kill or no germination
Protocol: as §1

[20] = system: chickweed (Stellaria media); experiment: Postemergence herbicidal activity, chickweed; details: foliar spray, visual after 2 weeks, 0 no injury, 100 complete kill
Protocol: as §2

[21] = system: cocklebur (Xanthium strumarium); experiment: Preemergence herbicidal activity, cocklebur; details: soil spray, visual after 3 weeks, 0 no injury, 100 complete kill or no germination
Protocol: as §1

[22] = system: Rox orange sorghum (Sorghum bicolor); experiment: Preemergence herbicidal activity, Rox orange sorghum; details: soil spray, visual after 3 weeks, 0 no injury, 100 complete kill or no germination
Protocol: as §1

[23] = system: blackgrass (Alopecurus myosuroides); experiment: Postemergence herbicidal activity, blackgrass; details: foliar spray, visual after 2 weeks, 0 no injury, 100 complete kill
Protocol: as §2

Structure (SMILES) | SETFA postemergence injury score 0-100 ([2]; 15.6 ppm) [%] | XANST postemergence injury score 0-100 ([3]; 15.6 ppm) [%] | SORBI postemergence injury score 0-100 ([5]; 15.6 ppm) [%] | AVEFA postemergence injury score 0-100 (wild oats (Avena fatua) [6]; 15.6 ppm) [%] | IPOHE postemergence injury score 0-100 ([7]; 15.6 ppm) [%] | AMARE postemergence injury score 0-100 ([8]; 15.6 ppm) [%] | POLCO postemergence injury score 0-100 ([9]; 15.6 ppm) [%] | CHEAL postemergence injury score 0-100 ([15]; 15.6 ppm) [%] | ABUTH postemergence injury score 0-100 ([18]; 15.6 ppm) [%] | VIOTR postemergence injury score 0-100 (viola (Viola tricolor); 15.6 ppm) [%] | STEME postemergence injury score 0-100 ([20]; 15.6 ppm) [%] | ALOMY postemergence injury score 0-100 ([23]; 15.6 ppm) [%] | ALOMY preemergence injury score 0-100 ([1]; 35 g/Ha) [%] | AMARE preemergence injury score 0-100 ([4]; 35 g/Ha) [%] | EPHHL preemergence injury score 0-100 ([10]; 35 g/Ha) [%] | ABUTH preemergence injury score 0-100 ([11]; 35 g/Ha) [%] | SETFA preemergence injury score 0-100 ([12]; 35 g/Ha) [%] | CHEAL preemergence injury score 0-100 ([13]; 35 g/Ha) [%] | AVEFA preemergence injury score 0-100 (wild oats (Avena fatua) [14]; 35 g/Ha) [%] | IPOHE preemergence injury score 0-100 ([16]; 35 g/Ha) [%] | other results
COc1cc(OC)n2nc(NS(=O)(=O)c3cscc3OC)nc2n1 [Compound 15] | 100 | 90 | 100 | 95 | 70 | 90 | 80 | 90 | 70 | 70 | 90 | 80 | – | – | – | – | – | – | – | – | ALOMY preemergence injury score 0-100 ([1]; 8.8 g/Ha): 100%; AMARE preemergence injury score 0-100 ([4]; 8.8 g/Ha): 85%; EPHHL preemergence injury score 0-100 ([10]; 8.8 g/Ha): 90%; ABUTH preemergence injury score 0-100 ([11]; 8.8 g/Ha): 90%; SETFA preemergence injury score 0-100 ([12]; 8.8 g/Ha): 100%; CHEAL preemergence injury score 0-100 ([13]; 8.8 g/Ha): 98%; AVEFA preemergence injury score 0-100 (wild oats (Avena fatua) [14]; 8.8 g/Ha): 100%; IPOHE preemergence injury score 0-100 ([16]; 8.8 g/Ha): 70%; ECHCG preemergence injury score 0-100 ([17]; 8.8 g/Ha): 80%; DIGSA preemergence injury score 0-100 ([19]; 8.8 g/Ha): 100%; XANST preemergence injury score 0-100 ([21]; 8.8 g/Ha): 60%; SORBI preemergence injury score 0-100 ([22]; 8.8 g/Ha): 100%
COc1cscc1S(=O)(=O)Nc1nc2c(OC)ccc(OC)n2n1 [Compound 16] | 90 | 95 | 90 | 80 | 60 | 95 | 90 | 95 | 80 | 70 | 90 | 85 | 100 | 60 | 0 | 40 | 0 | 80 | 0 | 0 | ECHCG preemergence injury score 0-100 ([17]; 35 g/Ha): 0%; DIGSA preemergence injury score 0-100 ([19]; 35 g/Ha): 30%; XANST preemergence injury score 0-100 ([21]; 35 g/Ha): 40%; SORBI preemergence injury score 0-100 ([22]; 35 g/Ha): 0%
COc1cscc1S(=O)(=O)Nc1nc2c(C)cnc(OC)n2n1 [Compound 17] | – | – | – | – | – | – | – | – | – | – | – | – | 100 | 70 | 60 | 30 | 60 | 100 | 30 | 0 | SETFA postemergence injury score 0-100 ([2]; 31.3 ppm): 90%; XANST postemergence injury score 0-100 ([3]; 31.3 ppm): 95%; SORBI postemergence injury score 0-100 ([5]; 31.3 ppm): 90%; AVEFA postemergence injury score 0-100 (wild oats (Avena fatua) [6]; 31.3 ppm): 85%; IPOHE postemergence injury score 0-100 ([7]; 31.3 ppm): 70%; AMARE postemergence injury score 0-100 ([8]; 31.3 ppm): 95%; POLCO postemergence injury score 0-100 ([9]; 31.3 ppm): 60%; CHEAL postemergence injury score 0-100 ([15]; 31.3 ppm): 100%; ECHCG preemergence injury score 0-100 ([17]; 35 g/Ha): 30%; ABUTH postemergence injury score 0-100 ([18]; 31.3 ppm): 85%; VIOTR postemergence injury score 0-100 (viola (Viola tricolor); 31.3 ppm): 70%; DIGSA preemergence injury score 0-100 ([19]; 35 g/Ha): 30%; STEME postemergence injury score 0-100 ([20]; 31.3 ppm): 90%; XANST preemergence injury score 0-100 ([21]; 35 g/Ha): 70%; SORBI preemergence injury score 0-100 ([22]; 35 g/Ha): 60%; ALOMY postemergence injury score 0-100 ([23]; 31.3 ppm): 70%
